In patent US20070207503A1, “DETECTION OF ALCOHOL-ESTERIFIED FATTY ACIDS” (priority 2006, published 2007):

Legend:
[1] = Form-specific antibody production / specificity of anti-14,15-, 11,12-, 8,9- and 5,6-DHETs; format: binding; conditions: DHET coupled to KLH, goat immunized
Description: Synthetic 14,15-, 11,12- or 8,9-DHETs were coupled to KLH using dicyclohexylcarbodiimide (DCC) as previously described (10). The 5,6-DHET with COOH at C1 blocked by NH3 to prevent lactone formation were coupled to KLH using 1-ethyl-3-(3-dimethylaminopropyl)carbodiimide hydrochloride (EDC) according to the manufacturer's instruction (Pierce Biotechnology, Rockford, Ill).
The conjugate was used to immunize a goat and antibody titers were determined by ELISA using the DHET-conjugated bovine serum albumin (BSA).
(§1) The specificity of the 14,15-DHET ELISA was investigated using authentic DHET and a panel of eicosanoids which, based on their structure, might be anticipated to compete with 14,15-DHET for binding to antibodies against 14,15-DHET.
(§2) The specificity of the antibody developed against 14,15-DHET was further investigated utilizing slot blot analysis. The 14,15-DHET conjugated BSA, BSA alone and 8,9-DHET conjugated to BSA were blotted onto cellulose membrane. Slot blot analysis was carried out with anti-14,15-DHET. […] Anti-8,9-DHET cross-reacted with both 8,9- and 14,15-DHETs.

[2] = system: antibodies against 14,15-DHET; experiment: 14,15-DHET solid phase competitive ELISA, specificity; format: binding, goat; conditions: 14,15-DHET ELISA, panel of eicosanoids
Description: (§3) High-binding microplates were coated with protein G-purified IgG suspended in 1 M carbonate, pH 9.01 (10 μg/well; 200 μL/well final volume) and then covered with parafilm. After overnight incubation at room temperature, the welts were gently washed five times with tris buffered saline (TBS), pH 7.5, containing 0.1% tween. Non-specific sites were blocked by the addition of 0.2 mL of 5% (w/v) nonfat dry milk in TBS. After 2 hours of incubation at room temperature, they were washed three times with TBS-tween.
(§4) Standards were serially diluted with TBS (100 μL). The diluted samples (100 μL) were added to the IgG-coated plate. Approximately 50 ng of the DHET HRP conjugates were diluted with HRP-dilution buffer (100 μL) and added to the well. Following incubation for 2 hours to permit competitive binding of the molecules to the antibody, unbound material was removed by thorough washing of the wells with TBS-tween, and 150 μL of a calorimetric substrate for HRP [3,3′,5,5′ tetramethylbenzidine (TMB) and hydrogen peroxide] (Sigma Co.) was added. The plate is then incubated for 30 min, the reaction stopped by addition of 75 μL of 1 N H2SO4, and the absorbance at 450 nm was measured using a microtiter plate reader. Under these assay conditions, the amount of color in a well is inversely proportional to the initial concentration of the sample or the standard ligand.
as §1
(§5) In a typical standard graph for 14,15-DHET, the r2 value for the fit of the data to an equation describing an inverse logarithmic relationship of free 14,15-DHET to B/Bo was usually higher than 0.96. The detection limits for 14,15- and 11,12-DHET with ELISAwere ˜1 pg.

11,12-DHET IgG = experiment: 11,12-DHET solid phase competitive ELISA, specificity; format: binding, goat; conditions: 11,12-DHET ELISA, authentic DHETs
Description: as §3, §4, §1, §5

[3] = system: ethanol-esterified 13-HODE IgG; experiment: Competitive ELISA with HRP conjugated with ethanol-esterified 13-HODE; format: binding, goat; conditions: plate coated with the IgG, various concentrations
Description: FIG. 6 is a graph showing a competitive ELISA carried out with various concentrations of BSA and 13-HODE ethyl ester conjugated BSA to show cross-reactivity of the antibody to the 13-HODE ethyl ester.
A competitive ELISA using a plate coated with the IgG was carried out with various concentrations of BSA conjugated with ethanol-esterified 13-HODE and HRP conjugated with ethanol-esterilied 13-HODE. A negative control for this ELISA was BSA.
ELISA was carried out with serially diluted BSA or ethyl ester of 13-HODE-conjugated BSA and ˜50 ng/100 μl of the ethyl ester of 13-HODE HRP conjugates as described in Example 1.

Anti-8,9-DHET = experiment: Cross-reaction of anti-8,9-DHET; format: binding, goat
Description: as §2

With `CCCCC/C=C\CC(O)C(O)C/C=C\C/C=C\CCCC(=O)O` (stereo not shown) [11,12-DHET] the form-specific antibody production [1] was “successful” and the “cross-reaction with anti-14,15-DHET” value [2] was “minimal cross-reaction”.

With `CCCCC/C=C\C/C=C\C/C=C\CC1OC1CCCC(=O)O` (stereo not shown) [5,6-EET] the “cross-reaction with anti-14,15-DHET” value [2] was “did not cross-react”.

For `CCCCC/C=C\C/C=C\C/C=C\CC(O)C(O)CCCC(=O)O` (stereo not shown) [5,6-DHET], the form-specific antibody production [1] was “failed”, the “cross-reaction with anti-14,15-DHET” value [2] was “did not cross-react” and the “cross-reaction with 11,12-DHET IgG” value (11,12-DHET IgG) was “didn't cross-react”.

In the case of `CCCCCC1OC1C/C=C\C/C=C\C/C=C\CCCC(=O)O` (stereo not shown) [14,15-EET], the “cross-reaction with anti-14,15-DHET” value [2] is reported as “did not cross-react”.

For `CCCCC/C=C\C/C=C\CCCCCCCC(=O)OCC` [Ethanol-esterified linoleic acid, linoleic acid ethyl ester], the “competition with ethanol-esterified 13-HODE-HRP conjugate for binding to the IgG” value [3] was “competed with the HRP conjugated with ethanol-esterified 13-HODE in a dose-dependent manner”.

For `CCCCC[C@H](O)/C=C/[C@H]1OC(O)C[C@H](O)[C@@H]1C/C=C\CCCC(=O)O` (stereo partly shown) [Thromboxane B2], the “cross-reaction with anti-14,15-DHET” value [2] was “did not cross-react”.

In the case of `CCCCC/C=C\C/C=C\CC1OC1C/C=C\CCCC(=O)O` (stereo not shown) [8,9-EET], the “cross-reaction with anti-14,15-DHET” value [2] is reported as “did not cross-react”.

With `CCCCC/C=C\C/C=C\C/C=C\C/C=C\CCCC(=O)O` [arachidonic acid] the “cross-reaction with anti-14,15-DHET” value [2] was “did not cross-react”.

For `CCCCC[C@H](O)/C=C/[C@@H]1[C@@H](C/C=C\CCCC(=O)O)[C@@H](O)C[C@H]1O` [PGF2a], the “cross-reaction with anti-14,15-DHET” value [2] was “did not cross-react”.

For `CCCCC[C@H](O)/C=C/[C@H]1[C@H](O)CC(=O)[C@@H]1C/C=C\CCCC(=O)O` [PGE2], the “cross-reaction with anti-14,15-DHET” value [2] was “did not cross-react”.

In the case of `CCCCC/C=C\C/C=C\CC(O)C(O)C/C=C\CCCC(=O)O` (stereo not shown) [8,9-DHET], the form-specific antibody production [1] is reported as “failed”, the “cross-reaction with anti-14,15-DHET” value [2] is reported as “minimal cross-reaction” and the “cross-reaction with anti-8,9-DHET” value (Anti-8,9-DHET) is reported as “cross-reacted”. The “cross-reaction with 11,12-DHET IgG” value (11,12-DHET IgG) was “minimal cross-reaction”.

For `CCCCCC(O)C(O)C/C=C\C/C=C\C/C=C\CCCC(=O)O` (stereo not shown) [14,15-DHET], the form-specific antibody production [1] was “successful”, the “cross-reaction with anti-8,9-DHET” value (Anti-8,9-DHET) was “cross-reacted” and the “cross-reaction with 11,12-DHET IgG” value (11,12-DHET IgG) was “minimal cross-reaction”.

In the case of `CCCCC[C@H](O)/C=C/[C@@H]1[C@@H](CC(=O)CCCCC(=O)O)[C@@H](O)C[C@H]1O` [6-keto-PGF1a], the “cross-reaction with anti-14,15-DHET” value [2] is reported as “did not cross-react”.

For `CCO` [ethanol], the “competition with ethanol-esterified 13-HODE-HRP conjugate for binding to the IgG” value [3] was “competed with the HRP conjugated with ethanol-esterified 13-HODE in a dose-dependent manner”.

For `CCCCC/C=C\C[C@H]1O[C@H]1C/C=C\C/C=C\CCCC(=O)O` [11,12-EET], the “cross-reaction with anti-14,15-DHET” value [2] was “did not cross-react”.

With `CCCCC[C@H](O)/C=C/C=C\C/C=C\C=C\[C@@H](O)CCCC(=O)O` [5(s)15(S)DiHETE] the “cross-reaction with anti-14,15-DHET” value [2] was “did not cross-react”.

For `CCCCC[C@H](O)/C=C/C=C\C/C=C\C/C=C\CCCC(=O)O` [15(S)HETE], the “cross-reaction with anti-14,15-DHET” value [2] was “did not cross-react”.
